Marks after values point to notes of the source that are not given here.
Assays:
[1] = test system: luciferase expression in the liver; assay: In vivo luciferase mRNA expression rodent model (liver luciferase after tail vein injection of mRNA-LNP); design: species or system mice (C57BL/6 or CD-1); details: liver 4 hours after administration, FLuc mRNA LNP
[2] = Determination of pKa of formulated lipids (TNS fluorescence assay in lipid nanoparticles); assay type: physicochemical; details: cationic lipid formulated in LNP (cationic lipid/DSPC/cholesterol/PEG-lipid 50/10/38.5/1.5 mol %); pH of half-maximal TNS fluorescence
Method: As described elsewhere, the pKa of formulated cationic lipids is correlated with the effectiveness of LNPs for delivery of nucleic acids (see Jayaraman et al, Angewandte Chemie, International Edition (2012), 51(34), 8529-8533; Semple et al, Nature Biotechnology 28, 172-176 (2010)). The preferred range of pKa is ˜5 to ˜7. The pKa of each cationic lipid was determined in lipid nanoparticles using an assay based on fluorescence of 2-(p-toluidino)-6-napthalene sulfonic acid (TNS). Lipid nanoparticles comprising cationic lipid/DSPC/cholesterol/PEG-lipid (50/10/38.5/1.5 mol %) in PBS at a concentration of 0.4 mM total lipid were prepared using the in-line process as described in Example 1. TNS was prepared as a 100 μM stock solution in distilled water. Vesicles were diluted to 24 μM lipid in 2 mL of buffered solutions containing, 10 mM HEPES, 10 mM IVIES, 10 mM ammonium acetate, 130 mM NaCl, where the pH ranged from 2.5 to 11. An aliquot of the TNS solution was added to give a final concentration of 1 μM and following vortex mixing fluorescence intensity was measured at room temperature in a SLM Aminco Series 2 Luminescence Spectrophotometer using excitation and emission wavelengths of 321 nm and 445 nm. A sigmoidal best fit analysis was applied to the fluorescence data and the pKa was measured as the pH giving rise to half-maximal fluorescence intensity.

[3] = test system: luciferase expression in the liver; assay: In vivo luciferase mRNA expression rodent model (liver luciferase after tail vein injection of mRNA-LNP); design: species or system mice (C57BL/6 or CD-1); details: liver 4 hours after administration, FLuc mRNA LNP; for Liver Luc @ 1.0 mg/kg: 1.0 mg mRNA/kg
Method: Lipid nanoparticles were prepared and tested according to the general procedures described in PCT Pub. Nos. WO 2015/199952 and WO 2017/004143, the full disclosures of which are incorporated herein by reference. Briefly, cationic lipid, DSPC, cholesterol and PEG-lipid were solubilized in ethanol at a molar ratio of about 50:10:38.5:1.5 or about 47.5:10:40.8:1.7. Lipid nanoparticles (LNP) were prepared at a total lipid to mRNA weight ratio of approximately 10:1 to 30:1. The mRNA is diluted to 0.2 mg/mL in 10 to 50 mM citrate or acetate buffer, pH 4. Syringe pumps were used to mix the ethanolic lipid solution with the mRNA aqueous solution at a ratio of about 1:5 to 1:3 (vol/vol) with total flow rates above 15 mL/min. The ethanol was then removed and the external buffer replaced with PBS by dialysis. Finally, the lipid nanoparticles were filtered through a 0.2 μm pore sterile filter. Lipid nanoparticle particle size was approximately 55-95 nm diameter, and in some instances approximately 70-90 nm diameter as determined by quasi-elastic light scattering using a Malvern Zetasizer Nano ZS (Malvern, UK).
Studies were performed in 6-8 week old female C57BL/6 mice (Charles River) or 8-10 week old CD-1 (Harlan) mice (Charles River) according to guidelines established by an institutional animal care committee (ACC) and the Canadian Council on Animal Care (CCAC). Varying doses of mRNA-lipid nanoparticle were systemically administered by tail vein injection and animals euthanized at a specific time point (e.g., 4 hours) post-administration. Liver and spleen were collected in pre-weighed tubes, weights determined, immediately snap frozen in liquid nitrogen and stored at −80° C. until processing for analysis.
For liver, approximately 50 mg was dissected for analyses in a 2 mL FastPrep tubes (MP Biomedicals, Solon Ohio). ¼″ ceramic sphere (MP Biomedicals) is added to each tube and 500 μL of Glo Lysis Buffer—GLB (Promega, Madison Wis.) equilibrated to room temperature is added to liver tissue. Liver tissues were homogenized with the FastPrep24 instrument (MP Biomedicals) at 2×6.0 m/s for 15 seconds. Homogenate was incubated at room temperature for 5 minutes prior to a 1:4 dilution in GLB and assessed using SteadyGlo Luciferase assay system (Promega). Specifically, 50 μL of diluted tissue homogenate was reacted with 50 μL of SteadyGlo substrate, shaken for 10 seconds followed by 5 minute incubation and then quantitated using a CentroXS^3 LB 960 luminometer (Berthold Technologies, Germany). The amount of protein assayed was determined by using the BCA protein assay kit (Pierce, Rockford Ill.). Relative luminescence units (RLU) were then normalized to total μg protein assayed. To convert RLU to ng luciferase a standard curve was generated with QuantiLum Recombinant Luciferase (Promega).
The FLuc mRNA (L-6107 or L-7202) from Trilink Biotechnologies will express a luciferase protein, originally isolated from the firefly, Photinus pyralis. FLuc is commonly used in mammalian cell culture to measure both gene expression and cell viability. It emits bioluminescence in the presence of the substrate, luciferin. This capped and poly-adenylated mRNA was fully substituted with respect to uridine and/or cytidine nucleosides.
Representative compounds of the disclosure shown in Table 2 were formulated using the following molar ratio: 50% cationic lipid/10% distearoylphosphatidylcholine (DSPC)/38.5% Cholesterol/1.5% PEG lipid 2-[2-(ω-methoxy(polyethyleneglycol2000)ethoxy]-N,N-ditetradecylacetamide) or 47.5% cationic lipid/10% DSPC/40.7% Cholesterol/1.8% PEG lipid. Relative activity was determined by measuring luciferase expression in the liver 4 hours following administration via tail vein injection as described in Example 1. The activity was compared at a dose of 1.0 or 0.5 mg mRNA/kg and expressed as ng luciferase/g liver measured 4 hours after administration, as described in Example 1. Compound numbers in Table 2 refer to the compound numbers of Table 1.

Row | Compound | Liver Luc determined at 0.3 mg/kg [1] [ng luc/g liver] | pKa [2] | Liver Luc @ 1.0 mg/kg [3] [ng luc/g liver] | Liver Luc determined at 0.5 mg/kg [3]
1 | CCCCCCC(CCCC)COC(=O)CCCCCCCCC(CCCCCCCCC(=O)OCC(CCCC)CCCCCC)N(CCCC(=O)N(CCCCCC)CCCCCC)CCCN(C)C (centres unmarked) [Compound I-21, bis(2-butyloctyl) 10-((4-(dihexylamino)-4-oxobutyl)(3-(dimethylamino)propyl)amino)nonadecanedioate] | 7723 ± 1714 | 6.4 | 20223 ± 5982 | 
2 | CCCCCCCCC(CCCCCC)COC(=O)CCCCCC(CCCCCC(=O)OCC(CCCCCC)CCCCCCCC)N(CCN(C)C)C(=O)CCCCC(=O)OC (centres unmarked) [Compound I-16, bis(2-hexyldecyl) 7-(N-(2-(dimethylamino)ethyl)-6-methoxy-6-oxohexanamido)tridecanedioate] |  | 6.25 | 66763 ± 15823 | 
3 | CCCCCCCCOC(=O)CCN(CCCCN(C)C)C(CCCCCC(=O)OCC(CCCCCC)CCCCCCCC)CCCCCC(=O)OCC(CCCCCC)CCCCCCCC (centres unmarked) [Compound I-4, bis(2-hexyldecyl) 7-((4-(dimethylamino)butyl)(3-(octyloxy)-3-oxopropyl)amino)tridecanedioate] |  | 6.17 | 46932 ± 17399 | 
4 | CCCCCCCCC(CCCCCC)COC(=O)CCCCCC(CCCCCC(=O)OCC(CCCCCC)CCCCCCCC)N(CCCN(C)C)C(=O)CCCCCCC(=O)OC (centres unmarked) [Compound I-17, bis(2-hexyldecyl) 7-(N-(3-(dimethylamino)propyl)-8-methoxy-8-oxooctanamido)tridecanedioate] |  | 6.78 | 26691 ± 13186 | 
5 | CCCCCCCCN(CCCCN(C)C)C(CCCCCCCCC(=O)OCC(CCCC)CCCCCC)CCCCCCCCC(=O)OCC(CCCC)CCCCCC (centres unmarked) [Compound I-23, bis(2-butyloctyl) 10-((4-(dimethylamino)butyl)(octyl)amino)nonadecanedioate] |  | 6.33 |  | 553 ± 153* *determined at 0.5 mg/kg ng luc/g liver
6 | CCCCCCCCC(CCCCCC)COC(=O)CCCCCC(CCCCCC(=O)OCC(CCCCCC)CCCCCCCC)N(CCN(C)C)C(=O)CCCCCCC(=O)OC (centres unmarked) [Compound I-18, bis(2-hexyldecyl) 7-(N-(2-(dimethylamino)ethyl)-8-methoxy-8-oxooctanamido)tridecanedioate] |  | 6.02 | 40650 ± 11479 | 
7 | CCCCCCCCC(CCCCCC)COC(=O)CCCCCC(CCCCCC(=O)OCC(CCCCCC)CCCCCCCC)N(CCCC(=O)N(CCCCCC)CCCCCC)CCN(C)C (centres unmarked) [Compound I-19, bis(2-hexyldecyl) 7-((4-(dihexylamino)-4-oxobutyl)(2-(dimethylamino)ethyl)amino)tridecanedioate] |  | 5.95 | 32706 ± 4621 | 
8 | CCCCCCCCC(CCCCCC)C(=O)OCCCCCCN(CCCCN(C)C)C(CCCCCCCCC(=O)OCC(CCCC)CCCCCC)CCCCCCCCC(=O)OCC(CCCC)CCCCCC (centres unmarked) [Compound I-5, bis(2-butyloctyl) 10-((4-(dimethylamino)butyl)(6-((2-hexyldecanoyl)oxy)hexyl)amino)nonadecanedioate] |  | 6.08 | 11720 ± 2439 | 
9 | CCCCCCC(CCCC)COC(=O)CCCCCC(CCCCCC(=O)OCC(CCCC)CCCCCC)N(CCCC(=O)N(CCCCCC)CCCCCC)CCCN(C)C (centres unmarked) [Compound I-20, bis(2-butyloctyl) 7-((4-(dihexylamino)-4-oxobutyl)(3-(dimethylamino)propyl)amino)tridecanedioate] | 4140 ± 1117 | 6.48 | 17095 ± 8181 | 
10 | CCCCCCCCC(CCCCCC)C(=O)OCCCCCCN(CCCCN(C)C)C(CCCCCCCCC(=O)OCC(CC)CCCC)CCCCCCCCC(=O)OCC(CC)CCCC (centres unmarked) [Compound I-22, bis(2-ethylhexyl) 10-((4-(dimethylamino)butyl)(6-((2-hexyldecanoyl)oxy)hexyl)amino)nonadecanedioate] | 5291 ± 1348 | 6.28 | 17654 ± 8167 | 
11 | CCCCCCC(CCCC)COC(=O)CCCCCCCCC(CCCCCCCCC(=O)OCC(CCCC)CCCCCC)N(CCCN(C)C)C(=O)CCCCC(=O)OC (centres unmarked) [Compound I-14, bis(2-butyloctyl) 10-(N-(3-(dimethylamino)propyl)-6-methoxy-6-oxohexanamido)nonadecanedioate] |  | 6.8 |  | 669 ± 575* *determined at 0.5 mg/kg ng luc/g liver
12 | CCCCCCCCOC(=O)CCN(CCCCN(C)C)C(CCCCCCCCC(=O)OCC(CCCC)CCCCCC)CCCCCCCCC(=O)OCC(CCCC)CCCCCC (centres unmarked) [Compound I-1] |  | 6.11 | 24031 ± 4777 | 
13 | CCCCCCCCOC(=O)CCN(CCCCCN(C)C)C(CCCCCCCCC(=O)OCC(CCCC)CCCCCC)CCCCCCCCC(=O)OCC(CCCC)CCCCCC (centres unmarked) [Compound I-2, bis(2-butyloctyl) 10-((5-(dimethylamino)pentyl)(3-(octyloxy)-3-oxopropyl)amino)nonadecanedioate] | 122 ± 18 | 6.67 | 682 ± 147 | 
14 | CCCCCCCCCN(CCCCN(C)C)C(CCCCCCCCC(=O)OCC(CCCC)CCCCCC)CCCCCCCCC(=O)OCC(CCCC)CCCCCC (centres unmarked) [Compound I-6] | 4093 ± 1036 | 6.22 | 11290 ± 6455 | 
15 | CCCCCCC(CCCC)COC(=O)CCCCCCCCC(CCCCCCCCC(=O)OCC(CCCC)CCCCCC)N(CCN(C)C)C(=O)CCCCC(=O)OC (centres unmarked) [Compound I-15, bis(2-butyloctyl) 10-(N-(2-(dimethylamino)ethyl)-6-methoxy-6-oxohexanamido)nonadecanedioate] |  | 5.96 | 21357 ± 15325 | 
